Assay results: patent publication US20100168112A1, “2-Substituted and 4-substituted aryl nitrone compounds” (RENOVIS, INC., priority 2004, published 2010)

Experiments:
[1] = Pharmacokinetic evaluation following intravenous and oral administration in rats; format: in vivo; conditions: male, Sprague-Dawley; for Cmax / Tmax / bioavailability: 5 mg/kg; for Cmax: rat plasma; for Cmax / Tmax: oral gavage, 2 mg/mL at 2.5 mL/kg; for clearance / Vd / Tmax / bioavailability / half-life: plasma, rat; for clearance / Vd / half-life: 1 mg/kg; for clearance / Vd: intravenous administration, 1 mg/mL at 1.0 mL/kg; for clearance: read-out: CI (clearance) (converted); for Vd: read-out: Vd (volume of distribution); for bioavailability: po 2 mg/mL at 2.5 mL/kg vs iv 1 mg/mL at 1.0 mL/kg, dose-normalized, read-out: F (%) oral bioavailability; for half-life: intravenous, read-out: T1/2 elimination half life (converted)
Outline: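 Male Sprague-Dawley rats, fasted, dosed iv (1 mg/mL formulation, 1.0 mL/kg, jugular or tail vein) or by oral gavage (2 mg/mL suspension, 2.5 mL/kg). Plasma sampled from 2 min to 480 min, some to 24 h, and quantified by LC-MS/MS (MRM). Parameters from noncompartmental analysis.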

[2] = DPPH free radical-scavenging/antioxidant assay; format: biochemical; conditions: 50 μM DPPH in 80% methanol; 24 h time point; read-out: EC50 (concentration at which a compound reduces by 50% the peak absorbance of DPPH at 520 nm)
Outline: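 Compounds diluted 100-fold from DMSO stocks into 50 μM DPPH in 80% methanol; absorbance at 520 nm followed kinetically to steady state, with the 24 h reading used. EC50 interpolated from OD520 versus concentration; Trolox, BHA, PBN and S-PBN as positive controls, DMSO as vehicle.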

SMILES	Cmax [1]	clearance [1]	Vd [1]	Tmax [1]	bioavailability [1]	half-life [1]	EC50 [2]
CC(C)(C)/[N+]([O-])=C/c1ccc(S(N)(=O)=O)cc1 [Compound 20, N-(tert-Butyl)-C-[4-(sulfamoyl)phenyl]nitrone]	796 ng/mL	12.8 mL/min/kg	4.08 L/kg	22.2 min	55.4%	220 min	> 1 mM
CC(C)(C)/[N+]([O-])=C/c1ccc(S(=O)(=O)N2CCOCC2)cc1 [Compound 23, N-(tert-Butyl)-C-[4-(morpholine-4-sulfonyl)phenyl]nitrone]	1120 ng/mL	28 mL/min/kg	3.78 L/kg	25.2 min	65.3%	94.8 min	> 1 mM
CC(C)(C)/[N+]([O-])=C/c1ccc(S(=O)(=O)Nc2cccnc2)cc1 [Compound 26, N-(tert-Butyl)-C-[4-(pyridin-3-ylsulfamoyl)phenyl]nitrone]	27300 ng/mL	0.167 mL/min/kg	0.09 L/kg	25.2 min	43.4%	262 min	> 1 mM
CC(C)(C)/[N+]([O-])=C/c1ccc(S(C)(=O)=O)cc1 [Compound 62, N-tert-Butyl-C-[4-(methanesulfonyl)phenyl]nitrone]	4630 ng/mL	1 mL/min/kg	0.53 L/kg	24.6 min	63.4%	349 min	> 1 mM
CC(C)(C)/[N+]([O-])=C/c1ccc(S(C)(=O)=O)cc1S(C)(=O)=O [Compound 63, N-tert-Butyl-C-(2,4-bis-methanesulfonylphenyl)nitrone]	4130 ng/mL	3.17 mL/min/kg	0.45 L/kg	45 min	95.9%	99.6 min	0.5 to 1 mM
CCS(=O)(=O)c1ccc(/C=[N+](\[O-])C(C)(C)C)c(S(=O)(=O)CC)c1 [Compound 64, N-tert-Butyl-C-(2,4-bis-ethanesulfonylphenyl)nitrone]	2490 ng/mL	13.8 mL/min/kg	0.67 L/kg	39.6 min	91.3%	33 min	0.5 to 1 mM
CC(C)(C)/[N+]([O-])=C/c1ccccc1S(C)(=O)=O [Compound 66, N-tert-Butyl-C-(2-methanesulfonylphenyl)nitrone]	4730 ng/mL	3 mL/min/kg	0.63 L/kg	60 min	70.3%	143 min	0.5 to 1 mM
